Like-named read-outs stand apart in the source and are kept apart here.
Columns and labels:
[1] = test system: full depth incision in the skin; assay: Wound healing in irradiated and wounded mice (histology, collagen type I immunohistochemistry); format: in vivo; conditions: 1 mg per mouse i.p. every other day, 14 days
Protocol: The effect of Halofuginone on wound healing was examined by using mice which were first irradiated and then wounded.
The experiment was conducted as follows. First, C3H, defined-flora, pathogen-free female mice of 12-14 weeks of age were anesthetized with 60 mg/kg sodium […]. The mice were then shaved. One group of mice was then irradiated as follows. First, a flap of skin about 40 mm long and about 20 mm wide was pulled through a slit in the lead cover of an irradiation jig and secured with tape, so that only the flap of skin was exposed. This exposed skin as then irradiated by using a 175 kVp/20 mA orthovoltage X-ray source, with a 2 mm Cu filter at a dose rate of 1.0 Gy/min. A standard dose of 18 Gy was delivered.
All of the mice were then wounded by making a full depth incision, about 25 mm long, in the skin along the midline of the lower back. Note that for the irradiated animals, the wound was made within the irradiated area, immediately following irradiation. For all mice, the incision was immediately closed by 3-4 metallic wound closure clips which were removed 2 days later.
After wounding, the mice were injected i.p. every other day, either with 1 mg per mouse of Halofuginone or with saline as a control. […]

[2] = test system: T50 bladder carcinoma bearing mice; assay: Wound healing in mice implanted with T50 bladder carcinoma tumors; format: in vivo, C3H mice; conditions: diet containing 10 mg/kg or 5 mg/kg, 3 days prior to and 2 weeks after cell injection
Protocol: Similar visual results were obtained with mice implanted with T50 bladder carcinoma tumors (FIG. 4). C3H mice were divided into two groups of 6 mice each. The experimental group received a diet containing either 10 mg/kg or 5 mg/kg of Halofuginone 3 days prior to the injection of T50 bladder carcinoma cells and during 2 weeks after. […] The right side received 0.4*10^5 cells, and the left side received 2*10^5 cells. The experiment ended at day 17. FIG. 4 is a photograph of representative bladder carcinoma bearing mice which were untreated (top) or treated (bottom) with Halofuginone. […] Halofuginone was clearly able to promote wound healing in mice implanted with bladder carcinoma tumors.

urethral strictures = format: in vivo, rats
From the text: Tile effect of Halofuginone in post-trauma stricture formation in rats was studied. Briefly, urethral strictures were induced by catheterization and application of an electrical current to the urethra of rats. The rats were divided into four groups: untreated rats as controls (FIG. 5A); rats treated with Halofuginone but not with coagulation current (FIG. 5B); rats treated with coagulation current alone (FIG. 5C); and rats treated with both Halofuginone and coagulation current (FIG. 5D-5F).
The experiments were performed as follows. First, urethral catherization was performed on anesthetized rats with a 23 G Quik-Cath (Baxter, Ireland) sheath. A spinal needle was inserted into the sheath, and was used to apply a coagulation current at a level of 10 W to the outer end of the needle for 1 second at three locations, 8, 10 and 12 mm from the meatus, in order to produce urethral strictures. Halofuginone was given for 7 days starting at the day of stricture formation, either orally at concentrations of 1 ppm and 5 ppm in the diet, or by injection of 0.03% Halofuginone dissolved in 2% lignocaine directly into the urethra once a day. Urethral gross morphology was evaluated by urethrogram after injecting contrast material (Telebrix Megalumine 300 mg/ml. Laboratorie, Guerbet, Aulnay Sous Bios, France) into the anesthetized rat through a 23 G Quik-Cath sheath, under fluoroscopy 3 weeks after stricture formation.

collagen type III = assay: Collagen type III immunohistochemistry at the stricture site; format: in vivo, rats; conditions: diet containing Halofuginone after coagulation current treatment
Protocol: Immunohistochemistry with antibodies to collagen type III was performed on biopsies taken from control, untreated rats, rats treated with coagulation current alone and rats fed a diet containing Halofuginone after coagulation current treatment. […] The experimental method was as follows. Rats were treated and sections of biopsy tissue were prepared as described previously in Example 4. Immunohistochemistry was performed with primary antibodies against collagen type III (BioGenex. San Ramon, Calif., USA) and a Histomouse SP kit (Zymed Laboratories Inc., South San Francisco, Calif., USA) for the secondary antibodies. The primary antibodies were used in a 1:1000 dilution and detection was performed with the Histomouse SP kit according to the instructions of the manufacturer.

collagen α1(I) gene = assay: Northern blot of collagen α1(I) gene in urethral fibroblasts; format: cell-based, rat; conditions: Northern blot analysis
Protocol: Next, total RNA was isolated using the guanidinium-thiocyanate-phenol technique (Chomczynski, P. and N. Sacchi, Anal. Biochem., 162:156, 1987). RNA was subjected to 1% agarose denaturing gel electrophoresis, followed by blotting onto a nylon filter (GeneScreen Plus, New England Nuclear, Boston, Mass., USA). The probe for the collagen α1(I) gene was labeled using the random primer procedure with a commercial kit (Boehringer, Germany). Hybridization was performed overnight at 40° C. in a solution containing 10% dextran sulfate, 1% SDS, 1 M NaCl, 40% formamide and […] denatured herring sperm DNA. Hybridization was followed by two 30-minute washes in 2×SSC (1×SSC contains 0.15 M NaCl and 0.015 M sodium citrate), 1% SDS, and two 20 minute washes in 1×SSC, 0.1% SDS. The filters were exposed to X-ray film (Agfa-Curix) at −70° C., using intensifying screens.

chickens = conditions: in vivo; cited from earlier work

With `O=C(CC1NCCC[C@H]1O)Cn1cnc2cc(Br)c(Cl)cc2c1=O` (stereo partly shown) [Halofuginone] the “collagen content in the wound” value ([1]; irradiated mouse (18 Gy)) was “significantly lowered”, the “healing of the wound” value ([1]; wounded and irradiated skin) was “the wound still healed” and the wound healing [2] was “greater wound healing”. The stricture formation (urethral strictures; 1 ppm in the diet for 7 days with coagulation treatment) was “did not affect stricture formation”, the stricture formation (urethral strictures; 5 ppm in the diet for 7 days with coagulation treatment) was “did not have strictures” and the stricture formation (urethral strictures; locally administered (0.03% in 2% lignocaine into the urethra once a day, 7 days) with coagulation treatment) was “did not have strictures”. For the same molecule, the stricture formation (urethral strictures; rat, in vivo) was “did not have any strictures”, the “levels of collagen type III” value (collagen type III) was “No significant changes” and the “expression of the collagen α1(I) gene” value (collagen α1(I) gene) was “specifically decreased the expression”. For the same molecule, the skin tearing (chickens) was “increased skin tearing”.
